Reference: patent US11591326B2, “Inhibitors of protein arginine methyltransferase 5 (PRMT5), pharmaceutical products thereof, and methods thereof” (PHARMABLOCK SCIENCES (NANJING), INC., priority 2018, dated 2023)
Where two headings read alike, the source gives them in different places.

Tests used:
[1] = tested on: EBC-1; test: Lung cancer panel proliferation inhibition, EBC-1; format: cell-based; conditions: Homo sapiens
Method: (§1) Inhibitory ability of compounds synthesized on the proliferation of three panels of cancer cell lines, including 5 breast cancer, 6 liver cancer, and 3 lung cancer cell lines were evaluated. Exponentially growing cells were seeded in the media of choice at various cell densities in 384-well plates with 20 ul per well and incubated overnight at 37° C., 5% CO2 incubator. Compounds were prepared as 10-point, 3-fold serial dilutions in DMSO, beginning at 6 mM. 1 μl of DMSO solutions from the compound stock plates were added to 99 ul of cell media (final top concentration of compound in the assay was 30 uM and the final concentration of DMSO was 0.5%). 20 μL of compound solutions in media were added to each well of plates with cells seeded. After adding compound solutions, assay plates were incubated for 8 and 12 days, respectively, at 37° C., 5% CO2. During this incubation period, cell media was changed every 4 days. After removing old media from cell plates, 40 ul of media with testing compounds dissolved, which were prepared by adding 1 ul of compound DMSO serial solutions to 199 ul of cell media, were added to the assay plates with the same layout as they were initially prepared. After 8 or 12 days, cell viability was measured using the CellTiter-Glo assay kit from Promega (Madison, Wis., USA) by quantitating the ATP present in the cell cultures. 20 μL of CellTiter-Glo reagent was added to each well of the cell plates. Luminescence was read after 10 minute of incubation with the Envision multiple plate reader from PerkinElmer (Waltham, Mass., USA). The concentrations of compounds inhibiting cell viability by 50% (IC50 values) were determined using a sigmoidal dose-response model (variable slopes, four parameters) in Prism 7 (La Jolla, Calif., USA).

[2] = tested on: SNU475; test: Liver cancer panel proliferation inhibition, SNU475; format: cell-based; conditions: Homo sapiens
Method: as §1

[3] = Pharmacokinetic study in dog; format: in vivo, male beagle dogs; conditions: male, beagle; for plasma clearance / Vd: 2 mg/kg, Dog PK (IV) 2 mpk; for plasma clearance: read-out: Clint (converted); for Vd / AUC(0-t) / Cmax / Tmax / bioavailability / half-life: plasma; for Vd: read-out: Vss; for AUC(0-t) / Cmax / Tmax / bioavailability / half-life: 10 mg/kg, Dog PK (PO) 10 mpk; for half-life: read-out: T½ (converted)
Method: None naïve male beagle dogs (8-10 kg; purchased from Beijing Marshall Biotechnology Co. LTD; n=18, with 3 per compound) were treated with a single dose of compounds being tested at 2 mg/kg by intravenous tail-vein injection and 10 mg/kg by oral gavage administration, with both doses formulated in 5% DMSO+45% PEG400 in water. Animals upon PO administration were fasted overnight and fed 4 hours after dosing. Animals upon IV administration were free access to food and water. The study was performed in accordance with the guidelines and standards of the Association for Assessment and Accreditation of Laboratory Animal Care (AAALAC International) and the National Institutes of Health.
The animal was restrained manually at the designated time points, and approximately 500 μL of each blood/time point was collected via cephalic vein and put on wet ice, then centrifuged at 2000 g for 5 min (4° C.) within 15 minutes post sampling. Plasma samples were stored at approximately −70° C. until analysis. An aliquot of 20 μL sample was added with 200 μL IS (Diclofenac, 100 ng/mL) in ACN. The mixture was vortexed for 10 min and centrifuged at 5800 rpm for 10 min. An aliquot of 1 μL supernatant was injected for LC-MS/MS analysis. For 10×-diluted sample, an aliquot of 2 μL sample was added with 18 μL blank plasma. The sample preparation procedure is same with no-diluted sample. Standard calibration curves were constructed by analyzing a series of control plasma aliquots containing Diclofenac (100 ng/mL) as an internal standard and 3-3,000 ng/mL testing compounds. Compound concentrations were determined with UPLC-MS/MS-22 (Triple Quad™ 6500).

[4] = tested on: Pancreatic Carcinoma MIA PaCa-2 cell; test: Cell proliferation inhibition, MIA PaCa-2 (CellTiter-Glo); format: cell-based; conditions: Homo sapiens, MIA PaCa-2, incubated for 12 days (read after 8 or 12 days), read-out: IC50 (μM) MIA PaCa2
Description: Materials and Cell Lines: Z-138, U251, and MIA PaCa2 cells were purchased from ATCC (American Type Culture Collection, Manassas, Va.) and Chinese Academy of Science (Shanghai, China). Iscove's Modified Dulbecco's Medium (IMDM), Dulbecco's Modified Eagle Medium (DMEM), penicillin-streptomycin, heat inactivated fetal bovine serum (FBS), and horse serum was purchased from ThermoFisher, Waltham, Mass., USA. Corning 96- and 384-well cell culture plates were purchased from ThermoFisher, Waltham, Mass., USA. Cell-Titer Glo® was purchased from Promega Corporation, Madison, Wis., USA.
In order to evaluate the inhibitory ability of compounds synthesized on the proliferation of the Pancreatic Carcinoma MIA PaCa-2 cell, exponentially growing cells were seeded in the culture media of DMEM with 10% FBS, 2.5% horse serum, 1 mM of Sodium Pyruvate and 1% penicillin-streptomycin at a concentration of 2500 cells/ml in a 384-well plate with 20 ul per well and incubated overnight at 37° C., 5% CO2 incubator. Compounds were prepared as 10-point, 3-fold serial dilutions in DMSO, beginning at 6 mM. 1 μl of DMSO solutions from the compound stock plates were added to 99 ul of cell media (final top concentration of compound in the assay was 30 uM and the final concentration of DMSO was 0.5%). 20 μL of compound solutions in media were added to each well of MIA PaCa-2 cell plates. After adding compound solutions, assay plates were incubated for 12 days at 37° C., 5% CO2. During this incubation period, cell media was changed every 4 days. After removing old media from cell plates, 40 ul of media with testing compounds dissolved, which were prepared by adding 1 ul of compound DMSO serial solutions to 199 ul of cell media, were added to the assay plates with the same layout as they were initially prepared. After 8 or 12 days, cell viability was measured using the CellTiter-Glo assay kit from Promega (Madison, Wis., USA) by quantitating the ATP present in the cell cultures. 20 μL of CellTiter-Glo reagent was added to each well of the cell plates. Luminescence was read after 10 minute of incubation with the Envision multiple plate reader from PerkinElmer (Waltham, Mass., USA). The concentrations of compounds inhibiting cell viability by 50% (IC50 values) were determined using a sigmoidal dose-response model (variable slopes, four parameters) in Prism 7 (La Jolla, Calif., USA).

[5] = tested on: MHCC-97H; test: Liver cancer panel proliferation inhibition, MHCC-97H; format: cell-based; conditions: Homo sapiens, MHCC97H
Method: as §1

[6] = tested on: A-549; test: Lung cancer panel proliferation inhibition, A-549; format: cell-based; conditions: Homo sapiens
Method: as §1

[7] = 192 h, EBC-1, 8 days, read-out: IC50 (μM) 8 days
[8] = 288 h, EBC-1, 12 days, read-out: IC50 (μM) 12 days
[9] = SNU-475, 192 h, SNU475, 8 days, read-out: IC50 (μM) 8 days
[10] = SNU-475, 288 h, SNU475, 12 days, read-out: IC50 (μM) 12 days
[11] = 192 h, 8 days, read-out: IC50 (μM) 8 days
[12] = 288 h, 12 days, read-out: IC50 (μM) 12 days
[13] = A549, 192 h, A-549, 8 days, read-out: IC50 (μM) 8 days
[14] = A549, 288 h, A-549, 12 days, read-out: IC50 (μM) 12 days

IC50 [1, 7] [µM]	IC50 [1, 8] [µM]	IC50 [2, 9] [µM]	IC50 [2, 10] [µM]	plasma clearance [3] [mL/min/kg]	Vd [3] [L/kg]	AUC(0-t) [3] [ng·h/mL]	Cmax [3] [ng/mL]	Tmax [3] [h]	bioavailability [3] [%]	half-life [3] [h]	IC50 [4] [µM]	IC50 [5, 11] [µM]	IC50 [5, 12] [µM]	IC50 [6, 13] [µM]	IC50 [6, 14] [µM]	SMILES
0.025	0.03	0.21	0.32	4.27	1.81 ± 0.13	35100 ± 7990	4440 ± 680	2	89.8 ± 20.5	3.76 ± 0.195	0.13	0.02	0.029	0.064	0.037	CC(=O)N1CCC(Nc2ccc3c(c2)C(=O)N(C[C@H](O)CN2CCc4ccccc4C2)CC3)CC1 [Compound 24a, (R)-7-((1-acetylpiperidin-4-yl)amino)-2-(3-(3,4-dihydroisoquinolin-2(1H)-yl)-2-hydroxypropyl)-3,4-dihydroisoquinolin-1(2H)-one]
0.028	0.031	0.29	0.35	5.17	1.56 ± 0.041	42100 ± 13200	5550 ± 1590	1.33 ± 0.577	133 ± 38.6	4.81 ± 1	0.114	0.023	0.024	0.13	0.028	CC(=O)N1CCC(Nc2ccc3c(c2)C(=O)N(C[C@H](O)CN2CCc4ccccc4C2)CCO3)CC1 [Compound 52a, (R)-7-((1-acetylpiperidin-4-yl)amino)-4-(3-(3,4-dihydroisoquinolin-2(1H)-yl)-2-hydroxypropyl)-3,4-dihydrobenzo[f][1,4]oxazepin-5(2H)-one]
0.062	0.057	0.66	0.86	13.5	1.32 ± 0.144	13300 ± 3280	3000 ± 567	1.67 ± 0.577	105 ± 25.5	3.37 ± 0.64	0.15	0.089	0.086	0.096	0.066	CC(=O)N1CCC(Nc2cc(C(=O)NC[C@H](O)CN3CCc4ccccc4C3)ncn2)CC1 [Compound C3, reference compound]
